The text below walks through data of paper PMC11009276, “Design, synthesis, biological assessment and molecular modeling studies of novel imidazothiazole-thiazolidinone hybrids as potential anticancer and anti-inflammatory agents” (Scientific Reports, 2024).

Where two headings read alike, the source gives them in different places.

In data set [1] the test system is gastric mucosa tissue of rats. The data set can be described thus: Lipid peroxidation in gastric mucosa. The data set is classed as in vivo, rat. The note with it: oral 0.0942 mmol/kg. As for the experimental part:
The compounds screened for ulcerogenic potential were also analysed for lipid peroxidation. Lipid peroxidation is measured as nmolMDA/100 mg of gastric mucosa tissue. […] Thus, it was concluded that protection of gastric mucosa might be related to the inhibition of lipid peroxidation.
Lipid peroxidation in the gastric mucosa was determined using the reported method by Ohkawa H. et al.[61]. The gastric mucosa of the glandular area was scraped off using glass slides after the stomach had been examined for ulcers. Gastric mucosa was weighed (100 mg) and homogenised in 1.8 cm^3 of ice-cold solution of KCl (1.15%). The homogenate is further added with 0.2 cm^3 of 8.1% sodium dodecyl sulphate (SDS), 1.5 cm^3 of acetate buffer, and 1.5 cm^3 of 0.8% thiobarbituric acid. After adding all buffers, the mixture was kept for incubation for 60 min over water bath, maintaining the temperature of the water bath at 95 °C. Later, the mixture was allowed to cool and then extracted with a freshly prepared mixture of n-butanol and pyridine (15:1 v/v), the organic layer obtained was centrifuged at 3000 rpm for about 10 min. The organic layer was separated out and visualised on UV–visible spectrophotometer. Concentration was measured using the following formula: Concentration=Absorbance×volume×109÷1.56×10^5×1000
Results obtained were expressed as nmol MDA/100 mg tissue and extinction coefficient (1.56 × 10^5) cm^-1 M^-1.

For data set [2], the target named is Bovine serum albumin (BSA) (Bos taurus, UniProt P02769). The data set can be described thus: BSA (protein albumin) denaturation inhibition assay. Conditions: for BSA denaturation inhibition assay Mean absorbance ± SEM: 100 μg/mL, 660 nm. As for the experimental part:
All the synthesized compounds were evaluated for anti-inflammatory activity by the inhibition of the albumin denaturation technique. […] All the test solutions (1 mL, 100 μg/mL) were then mixed with 1 mL of albumin solution (1%) and phosphate buffer saline and then incubated for around 15 min at 27 ± 1 °C. Further, the denaturation of protein was induced by keeping the reaction mixture on the water bath for 10 min and maintaining the temperature at 60 °C. Once the solution gets cooled, the turbidity was measured using UV–Visible spectrophotometer at 660 nm.

Data set [3] deals with MCF7 human breast cancer cell line. The data set can be described thus: MTT cytotoxicity assay, MCF7. Conditions: MCF7, 72 h, read-out: IC50 (µM) (Mean ± SD) MCF7.
Method: (§1) All the synthesized imidazothiazole derivatives linked with thiazolidinone moiety (4a-g and 5a-d, Fig. 4) were evaluated for their in- vitro anticancer activities against three selected human cancer cell lines namely non-small lung (A549), breast (MCF7) and colorectal (HCT116) and one normal human embryonic kidney cell line (HEK293) using the 3‐(4,5‐Dimethylthiazol‐2‐yl)-2,5‐Diphenyltetrazolium Bromide (MTT) assay method. […] Compounds were tested against selected cancer cell lines namely A549 (Lung), MCF-7(Breast) HCT116 (Colon), normal human embryonic kidney cell line (HEK293) and procured from National Centre for Cell Science Complex (NCCS) Pune University, India. Into a 96 well plate, cells were seeded into each well (3 × 10^3 cells/ per well), the plate were incubated for 24 h, after that the culture medium was discarded and replaced with fresh medium along with our newly synthesized test compounds in different concentration (10, 20, 40 and 80 µM) followed by incubation for 72 h. […] Finally, each well is treated with DMSO (100 µL) and swirled to dissolve the dark crystals of formazan. ELISA reader was used to measure the absorbance at 570 nm. The experiment was repeated three times; Graph pad prism and excel are used to calculate the IC50 values[51].
In data set [4] the test system is gastric mucosa of rats. The data set can be described thus: Ulcerogenic activity. The data set is classed as in vivo, rat. Conditions: oral 0.0942 mmol/kg. As for the experimental part: The Compounds (4a-d, 5a-b) which were found potent as anti-inflammatory agents were further screened for their ulcerogenic risk. The compounds and the standard drug were tested at an oral dose of 0.0942 mmol/kg.
Animals were divided into different groups consisting of 6 rats per group. […] The control group received 0.5% of the carboxymethylcellulose (CMC) solution. […] 24 h before the test compounds were administered. After receiving the medication, the rats were given regular food for 17 h and then sacrificed. The stomach was taken out and opened along its greater curvature before being gently cleansed by dipping it in normal saline and then washing it with distilled water. The mucosal injury/damage was examined thoroughly using a magnifying glass. The mucosal injury in each stomach was scored using the following score system: 0.5: Redness; 1.0: Spot Ulcers; 1.5: Hemorrhagic Streaks; 2.0: Ulcers > 3 but 5, 3.0: Ulcers > 5. The severity index (SI) of stomach mucosal injury was calculated as the mean score of each treated group minus the mean score of the control group.

The subject of data set [5] is A549 (Lung) cancer cell line. The data set can be described thus: MTT cytotoxicity assay, A549. Conditions: Homo sapiens, A549, 72 h, read-out: IC50 (µM) (Mean ± SD) A549. In general terms: Tetrazolium dyes change colour on reduction, which living cells bring about.
Method: as §1
Data set [6] concerns A549 cells. The data set can be described thus: DAPI nuclear staining. The data set is classed as cell-based, human. Conditions: IC50 dose, 48 h. As for the experimental part: A549 cells were treated with compound 4a, 4b, 4c and morphological changes were observed after nuclear staining with 4′,6‐diamidino‐2‐phenylindole (DAPI).
Cellular nuclear morphology was evaluated by fluorescence microscopy following DAPI staining. […] After incubation, the cells were again gently washed with PBS and the coverslips were mounted on sterile slides using a DPX mounting medium. The prepared slides were observed under a fluorescence microscope (Nikon) having a blue or cyan filter at × 40 magnification.

The subject of data set [7] is carrageenan-induced rat hind paw edema. The data set can be described thus: Carrageenan-induced rat paw edema inhibition assay. The data set is classed as in vivo. The note with it: after 4 h; for % inhibition (paw edema) / Increase in Paw volume SEM: oral 0.0314 mmol/kg; for Increase in Paw volume SEM: n = 6; for Activity relative to standard drug: relative to diclofenac sodium. How it is done: The anti-inflammatory efficacy of the newly synthesised compounds was assessed using a carrageenan-induced rat hind paw edema technique The animals were divided into groups of six at random, fasted for 24 h before to the experiment, and given free access to water. 0.5% CMC solution was given to the control group only. […] One hour after the administration of the test compounds and the reference drug, 0.1 mL of a 1% carrageenan solution in saline was subcutaneously injected into the subplantar area of the right hind paw of each rat. The right hind paw volume was measured using a Digital Plethysmometer PLM-01 Plus (Orchid Scientifics and Innovatives India Pvt. Ltd., Mumbai, India) at 3 and 4 h after carrageenan therapy. The following calculation was used to compute the percent edema inhibition from the mean effect in the treated and control animals: Percent edema inhibition=Vc-Vt/Vc×100 where Vc denotes the mean increase in paw volume in the control group of rats and Vt denotes the mean increase in paw volume in rats treated with test chemicals. After a 15-day washout period, the same group of rats utilised for the anti-inflammatory activity were employed for the ulcerogenic activity.
A general note: The carrageenan paw model is a standard test of acute inflammation.

Data set [8] has as its system A549 cells. The data set can be described thus: Wound healing (migration) assay. The data set is classed as cell-based, human. The note with it: 30 µM, 0 and 24 h, vs control. As for the experimental part: Migration of cells is directly associated with tumor progression and metastasis of cancerous cells. […] An artificial scratch or wound was created on the monolayer of A549 cells using a 200µL sterile pipette tip. […] The images of cells to fill up the artificial scratch or wounds were photographed at 0 and 24 h after the treatment and the responses were visualized using phase contrast microscopy.
Wound healing was performed with A549 cells. On six-well plates, cells were seeded at a density of 5 × 10^5 cells per well and cultured as a confluent monolayer for 24 h. A […] pipette sterile tip was used to make an artificial scratch or wound on the monolayer of A549 cells after a 24-h period, and well plates were then washed with PBS to eliminate any non-adherent cells. The therapy was then administered at the appropriate concentrations of chemicals 4c and 4b. A Nikon phase contrast microscope was used to take pictures of the movement of cells over the scratched region at 0 and 24 h in two or three randomly chosen fields.

For data set [9], the target named is EGFR kinase (Homo sapiens, UniProt P00533). The data set can be described thus: In vitro EGFR kinase inhibitory assay (ELISA, phospho-EGFR in A549 cell lysates). In general terms: In an ELISA, binding on a coated surface is turned into a signal by an enzyme label.
Method: For all the synthesized compounds, the overall methodology of a spectrophotometric assay for the inhibition of EGFR tyrosine kinase activity was evaluated in human A549 cells, which expressed high levels of EGFR protein. […] Cells were then washed with cold PBS, lysed in 0.2 ml/well of HNTG buffer (50 mM HEPES [(4‐(2‐hydroxyethyl)‐piperazineethanesulfonic acid; pH 7.5], 150 mM NaCl, 1.5 mM MgCl, 10% glycerol, 1% Triton X‐100, 0.5 mM sodium fluoride, 2 g/ml aprotinin, 2 g/ml pepstatin A, 1 mM sodium orthovanadate, 2 g/ml leupeptin, 1 mM phenyl methyl sulfonyl fluoride) for 10 min, and the lysates were collected as the supernatant fraction after a 12‐min centrifugation at 15,000 g. The specific EGFR concentration was measured by ELISA assay. Briefly, the wells of ELISA plates were coated with supernatant fraction and incubated at 4 °C overnight After washing three times with buffer (20 mM PBS, pH 7.2 containing 0.05% Tween‐20), the wells were blocked with 1% BSA for 2–3 h at room temperature. Further, the plate was washed and then mouse serum at 1,000‐fold dilution was added, followed by washing and incubation with phospho‐EGFR antibody (Invitrogen) at 4 °C overnight. The wells were washed and incubated with substrate solution (o‐phenylenediamine dihydrochloride), for 30 min, and the absorbance read on an ELISA plate reader at 490 nm[52]. %Inhibition=mean OD of untreated group-mean OD of treated group/mean OD of untreated group)×100.
Setting [10] is: read-out: BSA denaturation inhibition assay % inhibition of denaturation.

Chain of Bovine serum albumin (BSA) (P02769 25-607): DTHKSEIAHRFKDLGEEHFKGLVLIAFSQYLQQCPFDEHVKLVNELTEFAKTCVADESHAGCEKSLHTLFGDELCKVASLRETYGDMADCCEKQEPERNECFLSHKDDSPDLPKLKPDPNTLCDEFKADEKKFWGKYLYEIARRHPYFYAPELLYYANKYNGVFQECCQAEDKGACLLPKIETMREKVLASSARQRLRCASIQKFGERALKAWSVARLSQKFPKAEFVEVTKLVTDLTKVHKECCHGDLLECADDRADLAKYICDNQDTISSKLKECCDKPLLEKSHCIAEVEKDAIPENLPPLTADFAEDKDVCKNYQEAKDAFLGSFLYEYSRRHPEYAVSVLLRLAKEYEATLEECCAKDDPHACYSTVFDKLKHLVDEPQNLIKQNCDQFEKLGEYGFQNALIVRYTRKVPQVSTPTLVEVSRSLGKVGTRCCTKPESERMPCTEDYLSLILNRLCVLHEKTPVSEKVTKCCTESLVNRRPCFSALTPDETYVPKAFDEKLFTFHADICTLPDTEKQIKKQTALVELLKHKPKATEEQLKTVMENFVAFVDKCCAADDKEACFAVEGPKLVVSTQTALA
Chain of EGFR kinase (P00533 25-1210): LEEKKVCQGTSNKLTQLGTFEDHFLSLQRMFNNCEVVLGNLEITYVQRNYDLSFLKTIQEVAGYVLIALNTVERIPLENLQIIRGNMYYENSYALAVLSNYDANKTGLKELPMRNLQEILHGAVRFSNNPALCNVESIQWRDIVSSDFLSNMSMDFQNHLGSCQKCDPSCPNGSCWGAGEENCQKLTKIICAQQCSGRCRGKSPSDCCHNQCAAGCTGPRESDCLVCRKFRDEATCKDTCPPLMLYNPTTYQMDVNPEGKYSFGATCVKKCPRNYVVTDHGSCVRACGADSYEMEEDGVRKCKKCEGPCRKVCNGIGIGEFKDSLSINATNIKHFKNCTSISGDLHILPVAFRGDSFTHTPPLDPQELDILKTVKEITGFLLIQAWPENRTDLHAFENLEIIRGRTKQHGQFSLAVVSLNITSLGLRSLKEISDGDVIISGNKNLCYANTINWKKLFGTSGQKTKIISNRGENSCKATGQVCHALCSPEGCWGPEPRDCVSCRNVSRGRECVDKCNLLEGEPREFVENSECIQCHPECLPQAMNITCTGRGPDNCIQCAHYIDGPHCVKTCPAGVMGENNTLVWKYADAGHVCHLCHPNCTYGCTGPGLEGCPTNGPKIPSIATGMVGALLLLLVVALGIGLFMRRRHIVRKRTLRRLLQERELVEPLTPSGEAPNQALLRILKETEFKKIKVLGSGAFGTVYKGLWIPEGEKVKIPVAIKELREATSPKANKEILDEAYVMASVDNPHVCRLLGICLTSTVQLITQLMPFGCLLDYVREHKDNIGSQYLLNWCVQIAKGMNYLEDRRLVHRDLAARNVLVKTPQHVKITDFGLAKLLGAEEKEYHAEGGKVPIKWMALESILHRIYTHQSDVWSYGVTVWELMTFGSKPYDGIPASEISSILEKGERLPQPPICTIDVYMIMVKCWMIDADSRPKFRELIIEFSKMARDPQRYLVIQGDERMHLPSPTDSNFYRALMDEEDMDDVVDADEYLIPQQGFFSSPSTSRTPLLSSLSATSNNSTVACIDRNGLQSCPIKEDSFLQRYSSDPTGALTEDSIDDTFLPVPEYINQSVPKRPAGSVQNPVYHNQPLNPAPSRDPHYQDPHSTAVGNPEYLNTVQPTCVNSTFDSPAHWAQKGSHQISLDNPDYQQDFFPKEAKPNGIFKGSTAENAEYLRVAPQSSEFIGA

As for `CC1SC(c2c(-c3ccccc3)nc3sccn23)N(c2ccc(F)cc2)C1=O` (centres unmarked) [Compound 4a, 3-(4-Fluorophenyl)-5-methyl-2-(6-phenylimidazo[2,1-b]thiazol-5-yl) thiazolidin-4-one], the Lipid peroxidation in data set [1] is on record as 5.98 ± 0.114 Nmol MDA/100 mg tissue. The inhibition at 100 µg/mL in data set [2] (read-out: BSA denaturation inhibition assay % inhibition of denaturation, 100 μg/mL) is 82.1%. Also, the IC50 in [3] is 22.8 ± 5.5 µM. The “Mean ulcer severity index ± SEM” value in [4] is reported as 1.167 ± 0.210. In data set [5], the IC50 turned out to be 22.5 ± 2.04 µM. Moreover, the “Nuclear morphological change (DAPI)” value in [6] is “chromatin condensation and nuclear fragmentation and margination of nucleus”. For the same molecule, in data set [7], the “% inhibition (paw edema)” value is reported as 79.45%, the “Increase in Paw volume SEM” value turned out to be 0.141 ± 0.025 and the “Activity relative to standard drug” value is 98.91. For the same molecule, the “Migration of A549 cells (wound healing)” value in [8] is reported as “significant suppression in the migration of A549 cells”. The molecule further showed an IC50 in [9] of 28.6 ± 1.96 µM.

Turning to `CC1SC(c2c(-c3ccccc3)nc3sccn23)N(c2ccc(Cl)cc2)C1=O` (centres unmarked) [Compound 4b, 3-(4-Chlorophenyl)-5-methyl-2-(6-phenylimidazo[2,1-b]thiazol-5-yl) thiazolidin-4-one], in data set [1], the Lipid peroxidation is reported as 4.12 ± 0.159 Nmol MDA/100 mg tissue. Further, in data set [2], the “BSA denaturation inhibition assay Mean absorbance ± SEM” value was determined as 0.329 ± 0.001. The inhibition at 100 µg/mL in data set [2] (setting [10]) is 84.9%. Further, in data set [3], the IC50 stood at 29.2 ± 7.1 µM. Moreover, the “Mean ulcer severity index ± SEM” value in [4] worked out at 0.416 ± 0.153. The IC50 in [5] stood at 21.1 ± 1.04 µM. For the same molecule, in [6], the “Nuclear morphological change (DAPI)” value is “chromatin condensation and nuclear fragmentation and margination of nucleus”. Besides, in data set [7], the “% inhibition (paw edema)” value turned out to be 81.34%, the “Increase in Paw volume SEM” value came out at 0.128 ± 0.018 and the “Activity relative to standard drug” value was 101.27. Besides, the “Migration of A549 cells (wound healing)” value in data set [8] is recorded as “significant suppression in the migration of A549 cells”. In [9], this molecule yielded an IC50 of 24.3 ± 1.73 µM.

For the molecule `CC1SC(c2c(-c3ccccc3)nc3sccn23)N(c2ccc(Br)cc2)C1=O` (centres unmarked) [Compound 4c, 3-(4-Bromophenyl)-5-methyl-2-(6-phenylimidazo[2,1-b]thiazol-5-yl) thiazolidin-4-one], in [1], the Lipid peroxidation stood at 5.37 ± 0.060 Nmol MDA/100 mg tissue. In addition, in [2], the “BSA denaturation inhibition assay Mean absorbance ± SEM” value turned out to be 0.332 ± 0.006. Besides, the inhibition at 100 µg/mL in [2] (setting [10]) came to 83.6%. Moreover, the IC50 in data set [3] was 18.7 ± 0.88 µM. The “Mean ulcer severity index ± SEM” value in data set [4] was 0.500 ± 0.182. Besides, the IC50 in data set [5] was 10.7 ± 0.4 µM. Besides, in data set [6], the “Nuclear morphological change (DAPI)” value is “chromatin condensation and nuclear fragmentation and margination of nucleus”. Also, in [7], the “% inhibition (paw edema)” value was determined as 80.17%, the “Increase in Paw volume SEM” value turned out to be 0.136 ± 0.014 and the “Activity relative to standard drug” value is 99.82. In addition, the “Migration of A549 cells (wound healing)” value in data set [8] is recorded as “significant suppression in the migration of A549 cells”. Moreover, the IC50 in data set [9] was found to be 18.4 ± 1.25 µM.

For orientation: IC50 means the concentration needed to halve the response being measured.
